This is an account of results in patent US9073940B2, “Tricyclic pyrazol amine derivatives” (MERCK SERONO SA, priority 2009, dated 2015).

The subject of this assay is 4 PI3K isoforms (Human recombinant GST-PI3K). Briefly: PI3K scintillation proximity assay, best IC50 obtained with the four isoforms (alpha, beta, delta, gamma). Format: biochemical. The following applies: best IC50 obtained with the four isoforms of PI3K; read-out: Best potency measured on the 4 PI3K isoforms. A general note: SPA uses beads or plates that emit light when radiolabelled molecules are held near them.
As to `CC(C)(C)C1CCC(n2nc(C(=O)N3CCOCC3)c3c2-c2ccccc2S(=O)(=O)C3)CC1` (stereo not shown) [Example 94, 1-(4-tert-Butylcyclohexyl)-3-(morpholin-4-ylcarbonyl)-1,4-dihydrothiochromeno[4,3-c]pyrazole 5,5-dioxide], the IC50 came to 4120 nM.

Take `O=C(c1nn(C2CCCN(C3COC3)C2)c2c1CS(=O)(=O)c1ccccc1-2)N1CCOCC1` (stereo not shown) [Example 415, 3-(Morpholin-4-ylcarbonyl)-1-(1-oxetan-3-ylpiperidin-3-yl)-1,4-dihydrothiochromeno[4,3-c]pyrazole 5,5-dioxide]: the IC50 is 67 nM.

In the case of `O=C(c1nn([C@H]2CCCN(CCN3CC(F)(F)C3)C2)c2c1CS(=O)(=O)c1c(F)cccc1-2)N1CCOCC1` (stereo in doubt) [Example 464, 1-{1-[2-(3,3-difluoroazetidin-1-yl)ethyl]piperidin-3-yl}-6-fluoro-3-(morpholin-4-ylcarbonyl)-1,4-dihydrothiochromeno[4,3-c]pyrazole 5,5-dioxide], the IC50 turned out to be 22 nM.

As to `CCC1c2c(C(=O)N3CCOCC3)nn(-c3ccccc3)c2-c2ccccc2S1(=O)=O` (stereo not shown) [Example 59, 4-ethyl-3-(morpholin-4-ylcarbonyl)-1-phenyl-1,4-dihydrothiochromeno[4,3-c]pyrazole 5,5-dioxide], the IC50 turned out to be 2470 nM.

`O=C(c1nn(-c2ccccn2)c2c1CS(=O)(=O)c1ccccc1-2)N1CCOCC1` [Example 11, 3-(morpholin-4-ylcarbonyl)-1-pyridin-2-yl-1,4-dihydrothiochromeno[4,3-c]pyrazole 5,5-dioxide]: the IC50 stood at 1600 nM.

As to `COc1ccc2c(c1)S(=O)(=O)Cc1c(C(=O)N3CCOCC3)nn([C@@H]3CCCN(CCC4CCOCC4)C3)c1-2` (single isomer, unassigned) [Example 373], the IC50 amounted to 10300 nM.

Take `O=C(c1nn(C2CCCN(CCn3cccn3)C2)c2c1CS(=O)(=O)c1c(F)cccc1-2)N1CCOCC1` (stereo not shown) [Example 406, 6-Fluoro-3-(morpholin-4-ylcarbonyl)-1-{1-[2-(1H-pyrazol-1-yl)ethyl]piperidin-3-yl}-1,4-dihydrothiochromeno[4,3-c]pyrazole 5,5-dioxide]: the IC50 was determined as 80 nM.

For `Cc1noc(C)c1-c1cccc(-n2nc(C(=O)N3CCOCC3)c3c2-c2ccccc2S(=O)(=O)C3)c1` [Example 184, 1-[3-(3,5-Dimethylisoxazol-4-yl)phenyl]-3-(morpholin-4-ylcarbonyl)-1,4-dihydrothiochromeno[4,3-c]pyrazole 5,5-dioxide], the IC50 was determined as 300 nM.

In the case of `CCc1nc(-c2cccc(-n3nc(C(=O)N4CCOCC4)c4c3-c3ccccc3S(=O)(=O)C4)c2)no1` [Example 199, 1-[3-(5-Ethyl-1,2,4-oxadiazol-3-yl)phenyl]-3-(morpholin-4-ylcarbonyl)-1,4-dihydrothiochromeno[4,3-c]pyrazole 5,5-dioxide], the IC50 stood at 2590 nM.

On to `O=C(c1nn(-c2cccc(CN3CCC(F)CC3)c2)c2c1CS(=O)(=O)c1ccccc1-2)N1CCOCC1` [Example 242, 1-{3-[(4-Fluoropiperidin-1-yl)methyl]phenyl}-3-(morpholin-4-ylcarbonyl)-1,4-dihydrothiochromeno[4,3-c]pyrazole 5,5-dioxide], for which the IC50 was found to be 437 nM.

In the case of `CN1CCN(Cc2ccc(-n3nc(C(=O)N4CCOCC4)c4c3-c3ccccc3S(=O)(=O)C4)cn2)CC1` [Example 252, 1-{6-[(4-Methylpiperazin-1-yl)methyl]pyridin-3-yl}-3-(morpholin-4-ylcarbonyl)-1,4-dihydrothiochromeno[4,3-c]pyrazole 5,5-dioxide], the IC50 is 335 nM.

For `COc1cccc2c1S(=O)(=O)Cc1c(C(=O)N3CCOCC3)nn(C)c1-2` [Example 2, 6-methoxy-1-methyl-3-(morpholin-4-ylcarbonyl)-1,4-dihydrothiochromeno[4,3-c]pyrazole 5,5-dioxide], the IC50 came to 1730 nM.

Regarding `COCCN1CCC[C@H](n2nc(C(=O)N3CCOCC3)c3c2-c2cccc(F)c2S(=O)(=O)C3)C1` (single isomer, unassigned) [Example 434, 6-Fluoro-1-[1-(2-methoxyethyl)piperidin-3-yl]-3-(morpholin-4-ylcarbonyl)-1,4-dihydrothiochromeno[4,3-c]pyrazole 5,5-dioxide], the IC50 came out at 31 nM.

For the molecule `O=C(CC1CCOCC1)N1CCC(n2nc(C(=O)N3CCOCC3)c3c2-c2ccccc2S(=O)(=O)C3)C1` (stereo not shown) [Example 287, 3-(Morpholin-4-ylcarbonyl)-1-[1-(tetrahydro-2H-pyran-4-ylacetyl)pyrrolidin-3-yl]-1,4-dihydrothiochromeno[4,3-c]pyrazole 5,5-dioxide], the IC50 amounted to 733 nM.

For the molecule `O=C(c1nn([C@H]2CCCN(CCC3CCOCC3)C2)c2c1CS(=O)(=O)c1ccccc1-2)N1CCOCC1` (single isomer, unassigned) [Example 306, 3-(morpholin-4-ylcarbonyl)-1-{1-[2-(tetrahydro-2H-pyran-4-yl)ethyl]piperidin-3-yl}-1,4-dihydrothiochromeno[4,3-c]pyrazole 5,5-dioxide], the IC50 was 34 nM.

`O=C(c1nn(C2CCNCC2)c2c1CS(=O)(=O)c1ccccc1-2)N1CCOCC1` [Example 74]: the IC50 turned out to be 1520 nM.

`CC(C)(CN1CCOCC1)c1ccc(-n2nc(C(=O)N3CCOCC3)c3c2-c2ccccc2S(=O)(=O)C3)cc1` [Example 461, 1-[4-(1,1-Dimethyl-2-morpholin-4-ylethyl)phenyl]-3-(morpholin-4-ylcarbonyl)-1,4-dihydrothiochromeno[4,3-c]pyrazole 5,5-dioxide]: the IC50 is 341 nM.

For the molecule `O=C(c1nn(-c2ccc(CNC3CCCOC3)cc2)c2c1CS(=O)(=O)c1ccccc1-2)N1CCOCC1` (stereo not shown) [Example 455, N-{4-[3-(Morpholin-4-ylcarbonyl)-5,5-dioxidothiochromeno[4,3-c]pyrazol-1(4H)-yl]benzyl}tetrahydro-2H-pyran-3-amine], the IC50 came to 224 nM.

For `CS(=O)(=O)C1CCN(Cc2ccc(-n3nc(C(=O)N4CCOCC4)c4c3-c3ccccc3S(=O)(=O)C4)cc2)C1` (stereo not shown) [Example 229, 1-(4-{[3-(Methylsulfonyl)pyrrolidin-1-yl]methyl}phenyl)-3-(morpholin-4-ylcarbonyl)-1,4-dihydrothiochromeno[4,3-c]pyrazole 5,5-dioxide], the IC50 turned out to be 920 nM.

Consider `CN1CCN(C(=O)c2ccc3c(c2)-c2c(c(C(=O)N4CCOCC4)nn2-c2ccccc2)CS3(=O)=O)CC1` [Example 114, 8-[(4-Methylpiperazin-1-yl)carbonyl]-3-(morpholin-4-ylcarbonyl)-1-phenyl-1,4-dihydrothiochromeno[4,3-c]pyrazole 5,5-dioxide], for which the IC50 was determined as 4280 nM.

On to `O=C(c1nn(C2CCC(O)CC2)c2c1CS(=O)(=O)c1ccccc1-2)N1CCOCC1` (stereo not shown) [Example 98, 4-[3-(Morpholin-4-ylcarbonyl)-5,5-dioxidothiochromeno[4,3-c]pyrazol-1(4H)-yl]cyclohexanol], for which the IC50 was found to be 512 nM.

On to `O=C(c1nn(C2CN(CCN3CCOCC3)C2)c2c1CS(=O)(=O)c1ccccc1-2)N1CCOCC1` [Example 407, 3-(Morpholin-4-ylcarbonyl)-1-[1-(2-morpholin-4-ylethyl)azetidin-3-yl]-1,4-dihydrothiochromeno[4,3-c]pyrazole 5,5-dioxide], for which the IC50 was 236 nM.
